For one assay, the system named is virus strain F (R13025). Description: microbe, parasite or virus in culture. Particulars: for EC50: Human immunodeficiency virus 1, MT4, read-out: HIV-AVE-MT4-MTT-R13025-2-002 pEC50, virus strain F (R13025), MT4 cells, MTT (converted); for HIV-AVE-MT4-MTT-R13025-2-002 pEC50: virus strain F (R13025), MT4 cells. Type of assay: cell-based, HIV. How it is done: (§1) HIV- or mock-infected MT4 cells were incubated for five days in the presence of various concentrations of the inhibitor. […] Cell viability is measured by measuring the concentration of MTT, a yellow, water soluble tetrazolium dye that is converted to a purple, water insoluble formazan in the mitochondria of living cells only. Upon solubilization of the resulting formazan crystals with isopropanol, the absorbance of the solution is monitored at 540 nm. The values correlate directly to the number of living cells remaining in the culture at the completion of the five day incubation. The inhibitory activity of the compound was monitored on the virus-infected cells and was expressed as EC50 and EC90. These values represent the amount of the compound required to protect 50% and 90%, respectively, of the cells from the cytopathogenic effect of the virus. The toxicity of the compound was measured on the mock-infected cells and was expressed as CC50, which represents the concentration of compound required to inhibit the growth of the cells by 50%. The selectivity index (SI) (ratio CC50/EC50) is an indication of the selectivity of the anti-HIV activity of the inhibitor.
(§2) Because of the increasing emergence of drug resistant HIV strains, the present compounds were tested for their potency against clinically isolated HIV strains harboring several mutations.
(§3) As a measure of the broad spectrum activity of the present compounds, the fold resistance (FR) defined as FR=EC50(mutant strain)/EC50(HIV-1 strain LAI).

Another assay relates to virus strain S (R13080). Kind of assay: microbe, parasite or virus in culture. Type of assay: cell-based, HIV. The note with it: for EC50: Human immunodeficiency virus 1, MT4, read-out: HIV-AVE-MT4-MTT-R13080-2-002 pEC50, virus strain S (R13080), MT4 cells, MTT (converted); for HIV-AVE-MT4-MTT-R13080-2-002 pEC50: virus strain S (R13080), MT4 cells. How it is done:
as §1, §2, §3

The next assay has as its system wild type virus (IIIB). Description: HIV-AVE-MT4-MTT cellular assay, wild type virus (IIIB). Type of assay: cell-based. The note with it: MT4 cells, MTT; for EC50: Human immunodeficiency virus 1, IIIB, MT4, wild type virus (IIIB), read-out: HIV-AVE-MT4-MTT-IIIB-2-002 pEC50 (converted); for HIV-AVE-MT4-MTT-IIIB-2-002 pEC50: wild type virus (IIIB). The procedure: HIV- or mock-infected MT4 cells were incubated for five days in the presence of various concentrations of the inhibitor. At the end of the incubation period, all HIV-infected cells have been killed by the replicating virus in the control cultures in the absence of any inhibitor. Cell viability is measured by measuring the concentration of MTT, a yellow, water soluble tetrazolium dye that is converted to a purple, water insoluble formazan in the mitochondria of living cells only. Upon solubilization of the resulting formazan crystals with isopropanol, the absorbance of the solution is monitored at 540 nm. The values correlate directly to the number of living cells remaining in the culture at the completion of the five day incubation. The inhibitory activity of the compound was monitored on the virus-infected cells and was expressed as EC50 and EC90. These values represent the amount of the compound required to protect 50% and 90%, respectively, of the cells from the cytopathogenic effect of the virus. The toxicity of the compound was measured on the mock-infected cells and was expressed as CC50, which represents the concentration of compound required to inhibit the growth of the cells by 50%. The selectivity index (SI) (ratio CC50/EC50) is an indication of the selectivity of the anti-HIV activity of the inhibitor.

As to `CC(C)CN(C[C@@H](O)[C@H](Cc1ccccc1)NC(=O)O[C@H]1CO[C@H]2OCC[C@H]21)S(=O)(=O)c1ccc2nc(N(C)CCCN(C)C)sc2c1` [Compound 103], the EC50 is 174 nM with virus strain F (R13025), 525 nM with virus strain S (R13080) and 20 nM in the assay with wild type virus (IIIB).
The matching figures for `CC(C)CN(C[C@@H](O)[C@H](Cc1ccccc1)NC(=O)O[C@H]1CO[C@H]2OCC[C@H]21)S(=O)(=O)c1ccc2nc(N(CCN3CCCC3)C(=O)OC3CO[C@@H]4OCO[C@H]34)sc2c1` (stereo partly drawn) [Compound 178]: 10.7 nM, 33.9 nM and 17.4 nM.
The matching figures for `Cc1cccc(C)c1OCC(=O)N[C@@H](Cc1ccccc1)[C@H](O)CN(CC(C)C)S(=O)(=O)c1ccc2nc(NC(=O)c3cccc(O)c3C)sc2c1` [Compound 117]: 35.5 nM, 191 nM and 47.9 nM.
In the case of `CC(C)CN(C[C@@H](O)[C@H](Cc1ccccc1)NC(=O)OCc1cncs1)S(=O)(=O)c1ccc2nc(N(C)C(=O)CN3CCN(C)CC3)sc2c1` [Compound 173], the “HIV-AVE-MT4-MTT-R13025-2-002 pEC50” value in the assay on virus strain F (R13025) amounted to 7.52. Also, the “HIV-AVE-MT4-MTT-R13080-2-002 pEC50” value in the assay with virus strain S (R13080) is listed as 6.81. Also, in the assay with wild type virus (IIIB), the “HIV-AVE-MT4-MTT-IIIB-2-002 pEC50” value is listed as 8.25.
Consider `Cc1cccc(C)c1OCC(=O)N[C@@H](Cc1ccccc1)[C@H](O)CN(CC(C)C)S(=O)(=O)c1ccc2nc(NC(=O)c3cc(O)cc(O)c3)sc2c1` [Compound 113], for which the EC50 in the assay on virus strain F (R13025) is 24.5 nM; in the assay with virus strain S (R13080), 43.7 nM; in the assay on wild type virus (IIIB) it was 5.13 nM.
On to `Cc1cccc(C)c1OCC(=O)N[C@@H](Cc1ccccc1)[C@H](O)CN(CC(C)C)S(=O)(=O)c1ccc2nc(NC(=O)c3cccnc3)sc2c1` [Compound 111], for which the EC50 with virus strain F (R13025) was 234 nM; in the assay with virus strain S (R13080), 661 nM; in the assay on wild type virus (IIIB), 24.5 nM.
For `CC(C)CN(C[C@@H](O)[C@H](Cc1ccccc1)NC(=O)OCc1cncs1)S(=O)(=O)c1ccc2nc(NC(=O)c3cccnc3)sc2c1` [Compound 163], in that order: 49 nM, 214 nM and 11.5 nM.
`CC(C)CN(C[C@@H](O)[C@H](Cc1ccccc1)NC(=O)O[C@H]1CO[C@H]2OCC[C@H]21)S(=O)(=O)c1ccc2nc(N3CCNC3=O)sc2c1` [Compound 106]: the EC50 is 55 nM in the assay with virus strain F (R13025), 219 nM in the assay with virus strain S (R13080) and 11 nM in the assay with wild type virus (IIIB).
The matching figures for `CC(C)CN(C[C@@H](C)[C@H](Cc1ccccc1)NC(=O)OCc1cncs1)S(=O)(=O)c1ccc2nc(N(C)C(=O)c3ccncc3)sc2c1` [Compound 182]: 36.3 nM, 170 nM and 4.79 nM.
For `CC(C)CN(C[C@@H](O)[C@H](Cc1ccccc1)NC(=O)OCc1cncs1)S(=O)(=O)c1ccc2nc(N3CCN(C)C3=O)sc2c1` [Compound 151], in that order: 813 nM, 2690 nM and 107 nM.
Regarding `CC(C)CN(C[C@@H](O)[C@H](Cc1ccccc1)NC(=O)OCc1cncs1)S(=O)(=O)c1ccc2nc(NC(=O)OC(C)C)sc2c1` [Compound 167], the EC50 in the assay with virus strain F (R13025) is 30.9 nM; in the assay on virus strain S (R13080) it was 141 nM; with wild type virus (IIIB) it was 4.9 nM.
The matching figures for `CC(C)CN(C[C@@H](O)[C@H](Cc1ccccc1)NC(=O)OCc1cncs1)S(=O)(=O)c1ccc2nc(NC(=O)c3cc(ON)cc(ON)c3)sc2c1` [Compound 162]: 46.8 nM, 158 nM and 20.4 nM.
For `CC(C)CN(C[C@@H](O)[C@H](Cc1ccccc1)NC(=O)O[C@H]1CO[C@H]2OCC[C@H]21)S(=O)(=O)c1ccc2nc(NC(=O)c3cncs3)sc2c1` [Compound 177], in that order: 7.59 nM, 49 nM and 37.2 nM.
Turning to `CC(C)CN(C[C@@H](O)[C@H](Cc1ccccc1)NC(=O)OCc1cncs1)S(=O)(=O)c1ccc2nc(N(C)C(=O)CN3CCOCC3)sc2c1` [Compound 174], in the assay on virus strain F (R13025), the “HIV-AVE-MT4-MTT-R13025-2-002 pEC50” value is reported as 6.88. Also, the “HIV-AVE-MT4-MTT-R13080-2-002 pEC50” value with virus strain S (R13080) is 6.18. Besides, the “HIV-AVE-MT4-MTT-IIIB-2-002 pEC50” value with wild type virus (IIIB) came out at 8.04.
For `Cc1cccc(C)c1OCC(=O)N[C@@H](Cc1ccccc1)[C@H](O)CN(CC(C)C)S(=O)(=O)c1ccc2nc(NC(=O)C3CCN(C)CC3)sc2c1` [Compound 127], the EC50 in the assay with virus strain F (R13025) is 31.6 nM; in the assay on virus strain S (R13080) it was 135 nM; in the assay on wild type virus (IIIB), 16.6 nM.
With `CC(C)CN(C[C@@H](O)[C@H](Cc1ccccc1)NC(=O)OCc1cncs1)S(=O)(=O)c1ccc2nc(N(C)C(=O)c3ccc[nH]3)sc2c1` [Compound 180], the EC50 in the assay on virus strain F (R13025) is 891 nM; in the assay with virus strain S (R13080) it was 10000 nM; in the assay on wild type virus (IIIB), 155 nM.
As to `Cc1cccc(C)c1OCC(=O)N[C@@H](Cc1ccccc1)[C@H](O)CN(CC(C)C)S(=O)(=O)c1ccc2nc(N3CCCC3C(=O)O)sc2c1` (stereo partly drawn) [Compound 139], the EC50 is 3090 nM in the assay on virus strain F (R13025), 10000 nM in the assay on virus strain S (R13080) and 2090 nM in the assay on wild type virus (IIIB).
The matching figures for `COC(=O)CCNc1nc2ccc(S(=O)(=O)N(CC(C)C)C[C@@H](O)[C@H](Cc3ccccc3)NC(=O)OC(C)(C)C)cc2s1` [Compound 143]: 10000 nM, 10000 nM and 74.1 nM.
Regarding `CC(C)CN(C[C@@H](O)[C@H](Cc1ccccc1)NC(=O)O[C@H]1CO[C@H]2OCC[C@H]21)S(=O)(=O)c1ccc2nc(N(C)CCCN(C)C)sc2c1` [Compound 141], the “HIV-AVE-MT4-MTT-R13025-2-002 pEC50” value in the assay with virus strain F (R13025) turned out to be 6.49. The “HIV-AVE-MT4-MTT-R13080-2-002 pEC50” value with virus strain S (R13080) was determined as 6.02. Further, in the assay on wild type virus (IIIB), the “HIV-AVE-MT4-MTT-IIIB-2-002 pEC50” value turned out to be 7.83.
For `CC(C)CN(C[C@@H](O)[C@H](Cc1ccccc1)NC(=O)OCc1cncs1)S(=O)(=O)c1ccc2nc(N(C)C(=O)c3cc[nH]c3)sc2c1` [Compound 181], the EC50 was 525 nM in the assay with virus strain F (R13025), 1820 nM in the assay with virus strain S (R13080) and 33.1 nM with wild type virus (IIIB).
For `CC(C)CN(C[C@@H](O)[C@H](Cc1ccccc1)NC(=O)OC1CCSC1)S(=O)(=O)c1ccc2nc(NCCN(C)C)sc2c1` (stereo partly drawn) [Compound 146], in that order: 302 nM, 1000 nM and 9.55 nM.
For `CC(C)CN(C[C@@H](O)[C@H](Cc1ccccc1)NC(=O)OCc1cncs1)S(=O)(=O)c1ccc2nc(NC(=O)CN3CCNCC3)sc2c1` [Compound 157], the “HIV-AVE-MT4-MTT-R13025-2-002 pEC50” value with virus strain F (R13025) was 7.5. Besides, the “HIV-AVE-MT4-MTT-R13080-2-002 pEC50” value in the assay with virus strain S (R13080) was found to be 6.85. Also, the “HIV-AVE-MT4-MTT-IIIB-2-002 pEC50” value with wild type virus (IIIB) was 7.54.
On to `CC(C)CN(C[C@@H](O)[C@H](Cc1ccccc1)NC(=O)OCc1cncs1)S(=O)(=O)c1ccc2nc(NC(=O)c3ccncc3)sc2c1` [Compound 168], for which the EC50 in the assay on virus strain F (R13025) is 31.6 nM; in the assay on virus strain S (R13080), 135 nM; in the assay with wild type virus (IIIB) it was 24.5 nM.
Turning to `CC(C)CN(C[C@@H](O)[C@H](Cc1ccccc1)NC(=O)OCc1cncs1)S(=O)(=O)c1ccc2nc(NC(=O)C3CCCN(C)C3)sc2c1` (stereo partly drawn) [Compound 183], the EC50 is 1.7 nM in the assay with virus strain F (R13025), 7.08 nM in the assay with virus strain S (R13080) and 3.55 nM in the assay on wild type virus (IIIB).
For `CC(C)CN(C[C@@H](O)[C@H](Cc1ccccc1)NC(=O)OCc1cncs1)S(=O)(=O)c1ccc2nc(NC(=O)[C@@H]3CCCN3C)sc2c1` [Compound 166], in that order: 21.9 nM, 74.1 nM and 6.31 nM.
For `CC(=O)NCCNc1nc2ccc(S(=O)(=O)N(CC(C)C)C[C@@H](O)[C@H](Cc3ccccc3)NC(=O)COc3c(C)cccc3C)cc2s1` [Compound 133], in that order: 33.9 nM, 158 nM and 21.4 nM.
For `CC(C)CN(C[C@@H](O)[C@H](Cc1ccccc1)NC(=O)OCc1cncs1)S(=O)(=O)c1ccc2nc(NC(=O)CN3CCOCC3)sc2c1` [Compound 158], in that order: 7.94 nM, 30.2 nM and 3.31 nM.
As to `CC(C)CN(C[C@@H](O)[C@H](Cc1ccccc1)NC(=O)OCc1cncs1)S(=O)(=O)c1ccc2nc(NC(=O)c3ccccn3)sc2c1` [Compound 165], the figures for the EC50 in the assay on virus strain F (R13025), in the assay on virus strain S (R13080) and in the assay on wild type virus (IIIB) were 123 nM, 631 nM and 44.7 nM, respectively.

The values are drawn from patent US7659404B2, “Broad spectrum 2-(substituted-amino)-benzothiazole sulfonamide HIV protease inhibitors” (Tibotec Pharmaceuticals Ltd., priority 2001, dated 2010).
